Laboratory results: article PMC10354055, “An optimized Nurr1 agonist provides disease-modifying effects in Parkinson’s disease models” (Nature Communications, 2023)
Values joined by “and” are separate entries in the source; they are usually repeats but may differ in a detail not shown here. Identical values can stand only once.

Legend:
N27-A cells [1] = test: Mitochondrial activity assay, Seahorse XFp, N27-A cells; format: cell-based, rat; parameters: Seahorse time trace (OCR): unit not given here; conditions: for OCR changes after FCCP injection: MPP+ co-treatment, individual replicates (Supplementary Figure S1o); for Seahorse time trace (OCR) / ATP turnover: replicates; for ATP turnover: Fig. S1n, with MPP+
Method: Mitochondrial activity was measured using the Seahorse XFp analyzer (Agilent Technologies) according to the manufacturer’s instruction. Briefly, cells were plated onto wells of a XFp cell culture miniplate and incubated in a 37 °C incubator overnight. The assay was performed after cells were equilibrated for 1 h in XF assay medium supplemented with 10 mM D-glucose, 5 mM sodium pyruvate, and 2 mM glutamax in a non-CO2 incubator. Mitochondrial activity was monitored through sequential injections of 1 μM oligomycin, 2 μM carbonyl cyanide-4 (trifluoromethoxy) phenylhydrazone (FCCP) and 0.5 μM rotenone/antimycin A to calculate basal respiration (= baseline oxygen consumption rate (OCR)−rotenone/antimycin A OCR), maximal respiration (= FCCP OCR−rotenone/antimycin A OCR), ATP turnover (= baseline OCR−oligomycin OCR), and OCR changes after FCCP injection (= FCCP OCR−oligomycin OCR). Each plotted value was normalized to total protein quantified using a Bradford protein assay (Bio-Rad) and analyzed using the Seahorse WAVE Desktop software (Agilent Technologies).

MPTP-induced male mice [2] = test: Rotarod, sub-chronic MPTP-induced PD model mice; format: in vivo, mouse; conditions: Figure 4b; MPTP-induced mice; individual animal values
Method: (§1) MPTP (Sigma-Aldrich) was intraperitoneally (i.p.) injected (30 mg/kg) for 5 days (Day 1-5). […] To test dyskinetic involuntary behavior, an L-DOPA injected group was included, which received 50 mg/kg of L-DOPA and 15 mg/kg of benserazide (Sigma-Aldrich) (i.p.) for 16 days (Day 1–16). All compounds were administered 6 h post-MPTP injection to avoid any effect of compounds on the MPTP metabolism in the brain. Motor and non-motor related behavior tests were performed on the following days as described in Fig. 4a in an assessor- and observer-blinded fashion. Pre-training and baseline setup for motor-related behaviors were performed 3 days prior to the injections. Mice were sacrificed and subjected to immunohistochemistry. Mice were housed at the Animal Care Facilities of McLean Hospital under a 12-h light/12-h dark cycle, ambient temperature and humidity. Animals were handled in accordance with McLean Hospital’s Institutional Animal Care and Use Committee (Protocol #: 2015N000002) and followed National Institutes of Health guidelines.
Mice were pre-trained on an automated 5-lane rotarod unit (10 rpm, 3 min) for 2 days and the baseline was measured (10 rpm, 90 sec) before the rotarod test (3 days before the MPTP injection or the first rotarod test at week 2). Rotarod measurements were performed using an accelerating protocol, accelerated smoothly from 2 to 30 rpm for 5 min. Time on the rotating rod was measured automatically by placing a trip switch under the floor beneath the rotating drum.

N27-A cells [3] = test: Cellular oxidative stress, DCFDA ROS assay, N27-A cells; format: cell-based, rat; conditions: CQ 100 µM, 4A7C-301 1 µM
Method: Cellular oxidative stress was detected using the DCFDA Cellular ROS Assay Kit (Abcam) according to the manufacturer’s protocol. Briefly, cells seeded in black clear bottom 96 well plate were stained with DCFDA solution (20 µM) for 45 min at 37 °C.

Nurr1 mRNA = Nurr1 mRNA level, qRT-PCR, MN9D cells; format: cell-based, mouse; conditions: MPP+ or αSyn overexpression
Method: Total RNA was extracted using the GeneJET RNA Purification Kit (Thermo Fisher Scientific) and 100 ng of RNA was subjected to cDNA synthesis using Invitrogen Superscript cDNA Synthesis Kit (Invitrogen) according to the manufacturer’s protocol. qRT-PCR was performed using a CFX Connect Real-Time System (Bio-Rad) in a 20 μl volume mixture containing 2X SsoAdvanced Universal SYBR Green Supermix (Bio-Rad), 100 ng/μl of forward and reverse primers, and 1 μl of cDNA sample. Gene expression levels were quantified by the 2^∆∆CT method (Ct of target gene—Ct of glyceraldehyde-3-phosphate dehydrogenase (GAPDH). The following primers were used for qRT-PCR: TH forward: 5′-[…]-3′, reverse: 5′-[…]-3′; DAT forward: 5′-[…]-3′, reverse: 5′-[…]-3′; AADC forward: 5′-[…]-3′, reverse: 5′-[…]-3′; VMAT2 forward: 5′-[…]-3′, reverse: 5′-[…]-3′; c-Ret forward: 5′-[…]-3′, reverse: 5′-[…]-3′; TNFα forward: 5′-[…]-3′; reverse: 5′-[…]-3′; GAPDH, forward 5′-[…]-3′, reverse 5′-[…]-3′.
Lenti-GFP, -αSyn^WT, and -αSyn^A53T viruses were generated separately by co-transfecting each shuttle plasmid with lentivirus packaging plasmids into HEK293T cells using lipofectamine 2000 (Invitrogen). Briefly, 2 μg each FUW inducible shuttle plasmid, 2 μg FUW-rtTA, 2 μg psPax2 and 1.5 μg MD2.G were mixed and transfected into HEK293T cells. After 48 h, viral supernatants were collected and centrifuged at 1000g for 10 min, and subsequently filtered through a 0.45 μm filter. Lentiviruses were transduced into MN9D cells with 8 μg/ml of polybrene and the viral supernatant was removed and replaced with fresh medium a day after transduction.

MPTP-induced male mice [4] = test: Olfactory discrimination test, MPTP-induced PD model mice; format: in vivo, mouse
Method: as §1
The olfactory discrimination test was designed based on Prediger et al.. Briefly, mice were placed in a chamber (40 (w) × 20 (d) × 20 (h) cm) segmented with two identical compartments containing fresh sawdust (non-familiar odor) on one side and unchanged sawdust (familiar odor; maintained for 3 days before the test) on the other side. Mice could choose between one or another area by freely passing through an open door, for 5 min. Mice movements were monitored with EthoVision XT version 7.0 (Noldus) and time (s) and distance (cm) traveled in each compartment were recorded and analyzed.

Q: Which “OXPHOS capacity reduced by MPP+ (in words)” value (N27-A cells [1]; CQ 100 µM, 4A7C-301 1 µM) does the source give for `CCN(CC)CCCC(C)Nc1ccnc2cc(Cl)ccc12` (stereo not drawn) [CQ, chloroquine] here?
A: The value was “efficiently restored”.

Q: What about the “OCR changes after FCCP injection” value (N27-A cells [1]; Control N27-A cells) of the same compound?
A: The value was 8.55 pmol/min/µg protein and 7.31 pmol/min/µg protein and 2.32 pmol/min/µg protein and 23.52 pmol/min/µg protein.

Q: And the “Seahorse time trace (OCR)” value (N27-A cells [1]; Fig. S1j/k, Control + MPP+, time 2 min)?
A: Its value is 3.66 and 2.51 and 27.76.

Q: What about the “Seahorse time trace (OCR)” value (N27-A cells [1]; Fig. S1j/k, Control + MPP+, time 8 min) of the same compound?
A: The value was 3.46 and 2.01 and 20.11.

Q: What about the “Seahorse time trace (OCR)” value (N27-A cells [1]; Fig. S1j/k, Control + MPP+, time 15 min) of the same compound?
A: The value was 2.32 and 1.98 and 22.16 and 9.29.

Q: And the “Seahorse time trace (OCR)” value (N27-A cells [1]; Fig. S1j/k, Control + MPP+, time 21 min)?
A: Its value is 0.27 and 19.75 and 5.17.

Q: And the “Seahorse time trace (OCR)” value (N27-A cells [1]; Fig. S1j/k, Control + MPP+, time 28 min)?
A: The value was 0.58 and 1.26 and 17.08 and 5.33.

Q: And the “Seahorse time trace (OCR)” value (N27-A cells [1]; Fig. S1j/k, Control + MPP+, time 34 min)?
A: The value was 0.71 and 18.32 and 7.16.

Q: And the “Seahorse time trace (OCR)” value (N27-A cells [1]; Fig. S1j/k, Control + MPP+, time 41 min)?
A: Its value is 7.58 and 3.41 and 40.6 and 13.72.

Q: And the “Seahorse time trace (OCR)” value (N27-A cells [1]; Fig. S1j/k, Control + MPP+, time 47 min)?
A: The value was 6.82 and 3.28 and 39.31.

Q: And the “Seahorse time trace (OCR)” value (N27-A cells [1]; Fig. S1j/k, Control + MPP+, time 54 min)?
A: Its value is 6.13 and 3.21 and 37.92 and 10.02.

Q: And the “Seahorse time trace (OCR)” value (N27-A cells [1]; Fig. S1j/k, Control + MPP+, time 61 min)?
A: Its value is 0.03 and 1.24 and 16.5 and 4.04.

Q: And the “Seahorse time trace (OCR)” value (N27-A cells [1]; Fig. S1j/k, Control + MPP+, time 67 min)?
A: Its value is 0.55 and 1.35 and 12.69 and 5.31.

Q: And the “Seahorse time trace (OCR)” value (N27-A cells [1]; Fig. S1j/k, Control + MPP+, time 74 min)?
A: The value was 1.39 and 17 and 5.99.

Q: And the “Seahorse time trace (OCR)” value (N27-A cells [1]; Fig. S1j, Nurr1 OE + MPP+, time 2 min)?
A: Its value is 26.25 and 15.29.

Q: What about the “Seahorse time trace (OCR)” value (N27-A cells [1]; Fig. S1j, Nurr1 OE + MPP+, time 8 min) of the same compound?
A: The value was 18.52 and 15.98.

Q: And the “Seahorse time trace (OCR)” value (N27-A cells [1]; Fig. S1j, Nurr1 OE + MPP+, time 15 min)?
A: Its value is 20.57 and 30.55 and 13.93.

Q: What about the “Seahorse time trace (OCR)” value (N27-A cells [1]; Fig. S1j, Nurr1 OE + MPP+, time 21 min) of the same compound?
A: The value was 5.95 and 6.99 and 4.75 and 6.7.

Q: And the “Seahorse time trace (OCR)” value (N27-A cells [1]; Fig. S1j, Nurr1 OE + MPP+, time 28 min)?
A: The value was 5.18 and 6.25 and 5.44 and 7.19.

Q: And the “Seahorse time trace (OCR)” value (N27-A cells [1]; Fig. S1j, Nurr1 OE + MPP+, time 34 min)?
A: The value was 4.78 and 5.8 and 5.34 and 7.96.

Q: What about the “Seahorse time trace (OCR)” value (N27-A cells [1]; Fig. S1j, Nurr1 OE + MPP+, time 41 min) of the same compound?
A: Its value is 28.78 and 44.27 and 30.42.

Q: What about the “Seahorse time trace (OCR)” value (N27-A cells [1]; Fig. S1j, Nurr1 OE + MPP+, time 47 min) of the same compound?
A: Its value is 28.4 and 36.09 and 14.17.

Q: What about the “Seahorse time trace (OCR)” value (N27-A cells [1]; Fig. S1j, Nurr1 OE + MPP+, time 54 min) of the same compound?
A: Its value is 26.28 and 35.06 and 18.57 and 28.22.

Q: And the “Seahorse time trace (OCR)” value (N27-A cells [1]; Fig. S1j, Nurr1 OE + MPP+, time 61 min)?
A: The value was 4.76 and 5.21 and 0.65 and 4.3.

Q: And the “Seahorse time trace (OCR)” value (N27-A cells [1]; Fig. S1j, Nurr1 OE + MPP+, time 67 min)?
A: The value was 4.21 and 5.44 and 0.96 and 4.79.

Q: What about the “Seahorse time trace (OCR)” value (N27-A cells [1]; Fig. S1j, Nurr1 OE + MPP+, time 74 min) of the same compound?
A: The value was 4.26 and 6.26 and 5.01.

Q: What about the “Seahorse time trace (OCR)” value (N27-A cells [1]; Fig. S1k, Nurr1 KD + MPP+, time 2 min) of the same compound?
A: The value was 19.09 and 7.42 and 5.75 and 10.38.

Q: What about the “Seahorse time trace (OCR)” value (N27-A cells [1]; Fig. S1k, Nurr1 KD + MPP+, time 8 min) of the same compound?
A: The value was 18.47 and 7.53 and 4.86 and 8.38.

Q: And the “Seahorse time trace (OCR)” value (N27-A cells [1]; Fig. S1k, Nurr1 KD + MPP+, time 15 min)?
A: Its value is 15.57 and 7.6 and 4.41 and 7.39.

Q: What about the “Seahorse time trace (OCR)” value (N27-A cells [1]; Fig. S1k, Nurr1 KD + MPP+, time 21 min) of the same compound?
A: Its value is 1.43 and 1.21.

Q: What about the “Seahorse time trace (OCR)” value (N27-A cells [1]; Fig. S1k, Nurr1 KD + MPP+, time 28 min) of the same compound?
A: The value was 13.44 and 8.97 and 1.24.

Q: What about the “Seahorse time trace (OCR)” value (N27-A cells [1]; Fig. S1k, Nurr1 KD + MPP+, time 34 min) of the same compound?
A: Its value is 8.6.

Q: What about the ATP turnover (N27-A cells [1]; Control cells) of the same compound?
A: The ATP turnover was 6.76 pmol/min/µg protein and 3.39 pmol/min/µg protein and 1.42 pmol/min/µg protein and 10.68 pmol/min/µg protein.

Q: And the ATP turnover (N27-A cells [1]; Nurr1 KD cells)?
A: Its ATP turnover is 7.63 pmol/min/µg protein and -1 pmol/min/µg protein and 4.86 pmol/min/µg protein and 9.17 pmol/min/µg protein.

Q: And the ATP turnover (N27-A cells [1]; Nurr1 OE cells)?
A: Its ATP turnover is 19.32 pmol/min/µg protein and 24.75 pmol/min/µg protein and 13.77 pmol/min/µg protein and 18.27 pmol/min/µg protein.

Q: And the “OCR changes after FCCP injection” value (N27-A cells [1]; Nurr1 KD N27-A cells)?
A: Its value is 12.59 pmol/min/µg protein and 4.43 pmol/min/µg protein and 9.84 pmol/min/µg protein and 17.76 pmol/min/µg protein.

Q: What about the “OCR changes after FCCP injection” value (N27-A cells [1]; Nurr1 OE N27-A cells) of the same compound?
A: The value was 24 pmol/min/µg protein and 37.47 pmol/min/µg protein and 12.22 pmol/min/µg protein and 23.73 pmol/min/µg protein.

Q: And the “Latency to fall” value (MPTP-induced male mice [2])?
A: Its value is 188.53 s and 158.67 s and 132.1 s and 179.3 s and 127.13 s and 200.87 s and 173.6 s and 164.1 s.

Q: What about the “MPP+-induced ROS levels (in words)” value (N27-A cells [3]) of the same compound?
A: The value was “significantly reduced”.

Q: And the “Nurr1 mRNA levels (in words)” value (Nurr1 mRNA)?
A: Its value is “did not alter”.

Q: And the “olfaction, olfactory discrimination test (in words)” value (MPTP-induced male mice [4]; CQ 40, 4A7C-301 5, L-DOPA 50 mg/kg/day, i.p.)?
A: The value was “significantly restored”.

Q: What about the “Velocity” value (MPTP-induced male mice [4]; Figure 4e, MPTP-induced mice, individual animal values) of the same compound?
A: The value was 3.95 cm/s and 4.45 cm/s and 4.51 cm/s and 5.91 cm/s and 5.61 cm/s and 5.73 cm/s and 4.26 cm/s and 5.02 cm/s and 3.4 cm/s and 5.27 cm/s and 6.07 cm/s.
